Experimental data as given in patent US6514911B1, “Substituted oxadiazines useful as pesticides” (Uniroyal Chemical Company, Inc., priority 2002, dated 2003).

Legend:
Format in all cases: in vivo
[1] = test system: prickly sida (Sida spinosa L.) (PS); test: Preemergence herbicide test, soil drench, prickly sida; details: two weeks after treatment
Procedure: To illustrate the effectiveness of the previously described substituted oxadiazines of this invention as preemergence herbicides, 300 mg of the chemical was dissolved in a composition comprising 10 mL acetone to which 30 mg of tile emulsifying agent, ethoxylated sorbitan monolaurate, was added. The solution was diluted to 100 mL with distilled water. Ten milliliters of this 3000 ppm solution was diluted to 250 ppm with distilled water. […]
prickly sida (Sida spinosa L.) (PS),
(§1) The percent control of the weeds compared to untreated checks was determined two weeks after treatment. TABLE 1 summarizes the results achieved with compounds formulated as indicated above, and the data clearly indicate the good to excellent herbicidal efficacy of compositions of this invention.

[2] = test system: switchgrass (Panicum virgahim L.) (SG); test: Preemergence herbicide test, soil drench, switchgrass; details: two weeks after treatment; for Percent Weed Control SG / pest or weed control at 11208.5 g/ha: 10 lbs/A (11.2 kg/ha) soil drench, vs untreated checks
Procedure: (§2) To illustrate the effectiveness of the previously described substituted oxadiazines of this invention as preemergence herbicides, 300 mg of the chemical was dissolved in a composition comprising 10 mL acetone to which 30 mg of tile emulsifying agent, ethoxylated sorbitan monolaurate, was added. The solution was diluted to 100 mL with distilled water. Ten milliliters of this 3000 ppm solution was diluted to 250 ppm with distilled water. The chemical was applied at the rate of 10 pounds/acre (11.2 kg/ha) by drenchings 46 mL of the 250 ppm solution on the surface of soil in 4½ inch (11.25 cm) plastic pots wherein seeds of the following weeds had been planted:
switchgrass (Panicum virgahim L.) (SG),
as §1

[3] = test system: green foxtail (Setaria virdis (L.) Beauv.) (GF); test: Preemergence herbicide test, soil drench, green foxtail; details: two weeks after treatment
Procedure: as §2, with “41⁄2” for “4½”, “planted: green foxtail (Setaria […].) Beauv.) (GF). The percent control of the weeds compared to untreated checks was determined two weeks after treatment. TABLE 1 summarizes the results achieved with compounds formulated as indicated above, and the data clearly indicate the good to excellent herbicidal efficacy of compositions of this invention.” for “planted:”

[4] = test system: tall morningglory (Ipomoea purpurea (L.) Roth) (TM); test: Preemergence herbicide test, soil drench, tall morningglory; details: 10 lbs/A (11.2 kg/ha) soil drench, two weeks after treatment, vs untreated checks; for pest or weed control at 11208.5 g/ha: Ipomoea, 336 h, read-out: Percent Weed Control TM
Procedure: as §2, with “planted: tall morningglory (Ipomoea purpurea (L.) Roth) (TM), The percent control of the weeds compared to untreated checks was determined two weeks after treatment. TABLE 1 summarizes the results achieved with compounds formulated as indicated above, and the data clearly indicate the good to excellent herbicidal efficacy of compositions of this invention.” for “planted:”

[5] = test system: barnyardgrass (Echinochloa crus-galli (L.) Beauv.) (BG); test: Preemergence herbicide test, soil drench, barnyardgrass; details: two weeks after treatment
Procedure: as §2, with “planted: barnyardgrass (Echinochloa crus-galli (L.) Beauv.) (BG), and The percent control of the weeds compared to untreated checks was determined two weeks after treatment. TABLE 1 summarizes the results achieved with compounds formulated as indicated above, and the data clearly indicate the good to excellent herbicidal efficacy of compositions of this invention.” for “planted:”

[6] = test system: velvetleaf (Abutilon theophrasti Medik.) (VL); test: Preemergence herbicide test, soil drench, velvetleaf; details: 10 lbs/A (11.2 kg/ha) soil drench, two weeks after treatment, vs untreated checks; for pest or weed control at 11208.5 g/ha: Abutilon theophrasti, 336 h, read-out: Percent Weed Control VL
Procedure: as §2, with “planted: velvetleaf (Abutilon theophrasti Medik.) (VL), The percent control of the weeds compared to untreated checks was determined two weeks after treatment. TABLE 1 summarizes the results achieved with compounds formulated as indicated above, and the data clearly indicate the good to excellent herbicidal efficacy of compositions of this invention.” for “planted:”

[7] = 10 lbs/A (11.2 kg/ha) soil drench, vs untreated checks
[8] = Sida spinosa, 336 h, 10 lbs/A (11.2 kg/ha) soil drench, vs untreated checks, read-out: Percent Weed Control PS
[9] = Panicum, 336 h, read-out: Percent Weed Control SG
[10] = Setaria, 336 h, 10 lbs/A (11.2 kg/ha) soil drench, vs untreated checks, read-out: Percent Weed Control GF
[11] = Echinochloa crus-galli, 336 h, 10 lbs/A (11.2 kg/ha) soil drench, vs untreated checks, read-out: Percent Weed Control BG
[12] = 5 lbs/A (footnote for 32 and 33)

SMILES | pest or weed control at 11208.5 g/ha [1, 8] [%] | pest or weed control at 11208.5 g/ha [2, 9] [%] | pest or weed control at 11208.5 g/ha [3, 10] [%] | pest or weed control at 11208.5 g/ha [4] [%] | pest or weed control at 11208.5 g/ha [5, 11] [%] | pest or weed control at 11208.5 g/ha [6] [%] | also measured
FC(F)(F)c1cccc(C2=NC(C(F)(F)F)(C(F)(F)F)N=C(C(F)(F)C(F)(F)C(F)(F)F)O2)c1 [Compound 29, 2-(heptafluoropropyl)-4,4-bis(trifluoromethyl)-6-{(3-trifluoromethyl)phenyl}-4H-1,3,5-oxadiazine] | – | – | – | – | – | – | Percent Weed Control PS [1, 7]: 100%; Percent Weed Control SG [2]: 100%; Percent Weed Control GF [3, 7]: 100%; Percent Weed Control TM [4]: 100%; Percent Weed Control BG [5, 7]: 100%; Percent Weed Control VL [6]: 100%
FC(F)(F)c1cc(C2=NC(C(F)(F)F)(C(F)(F)F)N=C(C(F)(F)C(F)(F)F)O2)cc(C(F)(F)F)c1 [Compound 18, 2-{3,5-bis(trifluoromethyl)phenyl}-6-(pentafluoroethyl)-4,4-bis(trifluoromethyl)-4H-1,3,5-oxadiazine] | 100 | 100 | 100 | 100 | 100 | 100 | –
Fc1ccc(C2=NC(C(F)(F)F)(C(F)(F)F)N=C(C(F)(F)C(F)(F)C(F)(F)F)O2)cc1 [Compound 28, 2-(4-fluorophenyl)-6-(heptafluoropropyl)-4,4-bis(trifluoromethyl)-4H-1,3,5-oxadiazine] | 100 | 0 | 0 | 100 | 0 | 100 | –
FC(F)(F)Oc1ccc(C2=NC(C(F)(F)F)(C(F)(F)F)N=C(C(F)(F)F)O2)cc1 [Compound 8, 2-{4-(trifluoromethoxy)phenyl}-4,4,6-tris(trifluoromethyl)-4H-1,3,5-oxadiazine] | 100 | 100 | 100 | 100 | 100 | 100 | –
Fc1cc(F)cc(C2=NC(C(F)(F)F)(C(F)(F)F)N=C(C(F)(F)C(F)(F)F)O2)c1 [Compound 19, 2-(3,5-difluorophenyl)-6-(pentafluoroethyl)-4,4-bis(trifluoromethyl)-4H-1,3,5-oxadiazine] | 100 | 100 | 100 | 100 | 100 | 100 | –
FC(F)(F)C1=NC(C(F)(F)F)(C(F)(F)F)N=C(c2ccc(Br)cc2)O1 [Compound 2, 2-(4-bromophenyl)-4,4,6-tris(trifluoromethyl)-4H-1,3,5-oxadiazine] | 100 | 100 | 100 | 100 | 100 | 100 | –
FC(F)(F)c1ccc(C2=NC(C(F)(F)F)(C(F)(F)F)N=C(C(F)(F)C(F)(F)F)O2)cc1 [Compound 15] | – | – | – | – | – | – | Percent Weed Control PS [1, 7]: 100%; Percent Weed Control SG [2]: 100%; Percent Weed Control GF [3, 7]: 100%; Percent Weed Control TM [4]: 100%; Percent Weed Control BG [5, 7]: 100%; Percent Weed Control VL [6]: 100%
FC(F)(F)C1=NC(C(F)(F)F)(C(F)(F)F)N=C(c2cccc(C(F)(F)F)c2)O1 [Compound 7, 2,4,4-tris(trifluoromethyl)-6-{(3-trifluoromethyl)phenyl}-4H-1,3,5-oxadiazine] | – | – | – | – | – | – | Percent Weed Control PS [1, 7]: 100%; Percent Weed Control SG [2]: 100%; Percent Weed Control GF [3, 7]: 100%; Percent Weed Control TM [4]: 100%; Percent Weed Control BG [5, 7]: 100%; Percent Weed Control VL [6]: 100%
O=Cc1ccc(C2=NC(C(F)(F)F)(C(F)(F)F)N=C(C(F)(F)C(F)(F)F)O2)cc1 [Compound 31, 4-{6-(pentafluoroethyl)-4,4-bis(trifluoromethyl)-4H-1,3,5-oxadiazin-2-yl}-benzaldehyde] | – | – | – | – | 100 | – | –
O=[N+]([O-])c1ccc(C2=NC(C(F)(F)F)(C(F)(F)F)N=C(C(F)(F)F)O2)cc1 [Compound 10, 2-(4-nitrophenyl)-4,4,6-tris(trifluoromethyl)-4H-1,3,5-oxadiazine] | 80 | 80 | 80 | 50 | 80 | 80 | –
FC(F)(F)C1=NC(C(F)(F)F)(C(F)(F)F)N=C(c2ccccc2)O1 [Compound 1, 2-phenyl-4,4,6-tris(trifluoromethyl)-4H-1,3,5-oxadiazine] | 100 | 0 | 0 | 100 | 0 | 100 | –
FC(F)C1=NC(C(F)(F)F)(C(F)(F)F)N=C(c2ccc(C(F)(F)F)cc2)O1 [Compound 33, 21-(dfluoromethyl)-4,4-bis(trifluoromethyl)-6-(4-trifluoromethylphenyl)-4H-1,3,5-oxadiazine] | – | – | – | – | – | – | Percent Weed Control PS [1, 12]: 100%; Percent Weed Control GF [3, 12]: 40%; Percent Weed Control BG [5, 12]: 20%
FC(F)C1=NC(C(F)(F)F)(C(F)(F)F)N=C(c2cccc(C(F)(F)F)c2)O1 [Compound 32, 2-(difluoromethyl)-4,4-bis(trifluoromethyl)-6-(3-trifluoromethylphenyl)-4H-1,3,5-oxadiazine] | – | – | – | – | – | – | pest or weed control at 5604.25 g/ha ([1]; Sida spinosa, pre-emergence, 336 h, 5 lbs/A (footnote for 32 and 33), read-out: Percent Weed Control PS): 100%; pest or weed control at 5604.25 g/ha ([2]; Panicum, pre-emergence, 336 h, 5 lbs/A (footnote for 32 and 33), read-out: Percent Weed Control SG): 0%; pest or weed control at 5604.25 g/ha ([3]; Setaria, pre-emergence, 336 h, 5 lbs/A (footnote for 32 and 33), read-out: Percent Weed Control GF): 100%; pest or weed control at 5604.25 g/ha ([5]; Echinochloa crus-galli, pre-emergence, 336 h, 5 lbs/A (footnote for 32 and 33), read-out: Percent Weed Control BG): 80%
